From PubChem BioAssay (NCI)
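1) Cells in 96-well plates. 2) Compound, 48 h, 5 concentrations. 3) Linear interpolation between surrounding doses. 4) Unreached endpoint = highest concentration. TGI is the concentration that stops growth completely.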

Key:
Experiment in all cases: NCI tumour cell line growth inhibition, 48 h
NCI-H23 lung = test system: NCI-H23 lung
HT29 colon = test system: HT29 colon
SK-MEL-5 melanoma = test system: SK-MEL-5 melanoma
OVCAR-5 ovarian = test system: OVCAR-5 ovarian
TK-10 renal = test system: TK-10 renal
ACHN renal = test system: ACHN renal
SR leukemia = test system: SR leukemia
M14 melanoma = test system: M14 melanoma
COLO 205 colon = test system: COLO 205 colon
NCI-H522 lung = test system: NCI-H522 lung
SK-MEL-2 melanoma = test system: SK-MEL-2 melanoma
CAKI-1 renal = test system: CAKI-1 renal
SK-OV-3 ovarian = test system: SK-OV-3 ovarian
HS 578T breast = test system: HS 578T breast
NCI/ADR-RES ovarian = test system: NCI/ADR-RES ovarian
DU-145 prostate = test system: DU-145 prostate
RXF 393 renal = test system: RXF 393 renal
MCF7 breast = test system: MCF7 breast

Compound | TGI (NCI-H23 lung) | TGI (HT29 colon) | TGI (SK-MEL-5 melanoma) | TGI (OVCAR-5 ovarian) | TGI (TK-10 renal) | TGI (ACHN renal) | TGI (SR leukemia) | TGI (M14 melanoma) | TGI (COLO 205 colon) | TGI (NCI-H522 lung) | TGI (SK-MEL-2 melanoma) | TGI (CAKI-1 renal) | TGI (SK-OV-3 ovarian) | TGI (HS 578T breast) | TGI (NCI/ADR-RES ovarian) | TGI (DU-145 prostate) | TGI (RXF 393 renal) | TGI (MCF7 breast)
Cc1cc(C=O)c2c(=O)c3c(O)ccc(/C=C/C(C)C)c3oc2c1 | > 100 µM | > 100 µM | > 100 µM | > 100 µM | > 100 µM | > 100 µM | 78.2 µM | > 100 µM | > 100 µM | 74 µM | > 100 µM | > 100 µM | – | – | – | – | – | –
Cc1csc(=Nc2ccccc2)n1CCC(O)(P(=O)(O)O)P(=O)(O)O | > 100 µM | > 100 µM | > 100 µM | > 100 µM | > 100 µM | > 100 µM | – | > 100 µM | > 100 µM | > 100 µM | – | > 100 µM | > 100 µM | > 100 µM | > 100 µM | > 100 µM | > 100 µM | > 100 µM
COC(=O)N/N=C(\C)c1sc(-c2nc(C)c(/C(C)=N/NC(=O)OC)s2)nc1C | > 100 µM | > 100 µM | > 100 µM | > 100 µM | > 100 µM | > 100 µM | 45.7 µM | > 100 µM | > 100 µM | > 100 µM | > 100 µM | > 100 µM | > 100 µM | – | – | – | > 100 µM | –
C[C@H]1CCC/C=C/[C@@H]2C[C@H](OC(=O)CN(C)C)C[C@H]2[C@H](O)/C=C/C(=O)O1 | 0.909 µM | 1.07 µM | 0.0944 µM | 5.68 µM | 1.93 µM | 11.4 µM | 3.49 µM | > 19.9 µM | 0.0997 µM | 1.39 µM | 1.36 µM | > 44.9 µM | > 100 µM | > 10.5 µM | 0.326 µM | > 33.8 µM | 0.155 µM | 4.31 µM
COc1ccc2cc3n(c(=O)c2c1)CCc1c-3cc(OC)c(OC)c1OC | > 100 µM | > 100 µM | > 100 µM | > 100 µM | > 100 µM | > 100 µM | > 100 µM | > 100 µM | > 100 µM | > 100 µM | > 100 µM | > 100 µM | > 100 µM | – | – | – | – | –
Cc1ccccc1NC(=O)CC(=O)NNCC(=O)Nc1nnc(-c2ccccc2)s1 | > 100 µM | > 100 µM | > 100 µM | > 100 µM | > 100 µM | > 100 µM | > 100 µM | > 100 µM | > 100 µM | > 100 µM | > 100 µM | > 100 µM | – | – | – | – | – | –
COc1ccc(OC)c(/C=C2/C(=O)N=C(NC(C)=O)N2C)c1 | > 100 µM | > 100 µM | > 100 µM | > 100 µM | > 100 µM | > 100 µM | – | > 100 µM | > 100 µM | > 100 µM | > 100 µM | > 100 µM | > 100 µM | > 100 µM | > 100 µM | > 100 µM | > 100 µM | > 100 µM
CCOC(OCC)(OCC)C(Br)CC (stereo not given) | > 100 µM | > 100 µM | > 100 µM | > 100 µM | > 100 µM | > 100 µM | 49 µM | > 100 µM | > 100 µM | > 100 µM | > 100 µM | > 100 µM | > 100 µM | – | – | – | > 100 µM | –
CN(C)c1ccc(/C=C2\CCc3ccccc3C2=O)cc1Br | > 100 µM | > 100 µM | 76.8 µM | > 100 µM | > 100 µM | > 100 µM | > 100 µM | > 100 µM | > 100 µM | > 100 µM | > 100 µM | > 100 µM | > 100 µM | – | – | – | > 100 µM | –
NC1=C(c2nc(-c3ccccc3)cs2)C(c2ccco2)c2c(c3ccccc3oc2=O)O1 (stereo not given) | > 100 µM | > 100 µM | > 100 µM | > 100 µM | > 100 µM | > 100 µM | > 100 µM | > 100 µM | > 100 µM | > 100 µM | > 100 µM | > 100 µM | > 100 µM | > 100 µM | > 100 µM | > 100 µM | > 100 µM | > 100 µM
CCOc1ccc(OP2(=O)NC(=O)C=C(C)N2)cc1 (stereo not given) | > 100 µM | > 100 µM | > 100 µM | > 100 µM | > 100 µM | > 100 µM | > 100 µM | > 100 µM | > 100 µM | > 100 µM | > 100 µM | > 100 µM | > 100 µM | – | – | – | > 100 µM | –
CN1S(=O)(=O)N(C)P12(N=P(CP(=NP13(N(C)S(=O)(=O)N1C)N(C)S(=O)(=O)N3C)(c1ccccc1)c1ccccc1)(c1ccccc1)c1ccccc1)N(C)S(=O)(=O)N2C | > 100 µM | > 100 µM | > 100 µM | > 100 µM | > 100 µM | > 100 µM | – | > 100 µM | > 100 µM | > 100 µM | > 100 µM | > 100 µM | > 100 µM | – | – | – | > 100 µM | –
